Drawing on EP2002836B1, “Cyclocondensed azaindoles active as kinase inhibitors” (Nerviano Medical Sciences S.r.l., priority 2007, dated 2008), this text covers IC50 for 4 compounds.

For orientation: IC50 means the point on the concentration scale where inhibition reaches its midpoint.

The target of one test is AKT3 (Homo sapiens, UniProt Q9Y243). The test is described as follows: Biochemical assay for inhibitors of AKT3 kinase activity (33P trans-phosphorylation, Dowex resin). The following applies: 1 nM enzyme, 180 microM ATP, 28.5 microM peptide substrate; read-out: AKT3 IC50 (µM) Biochem assay. The protocol:
The N-terminal GST fusion proteins used for the assays were prepared according to the methods described in Kumar, C. C. Biochem. Biophys. ACTA 2001, 1526, 257-268, and in Alessi, D. R.. Biochem. J. 1998 331, 299-308.
The in vitro kinase inhibition assay was conducted in the same way as described for AKT1. The kinase assay was run with a final enzyme concentration of 1 nM, in the presence of 180 microM ATP, 0.88 nM ^33P-γ-ATP and 28.5 microM substrate, a carboxy-terminally biotinylated peptide of the following sequence: ARKRERTYSFGHHA-biotin. The peptide was obtained in batches of >95% peptide purity from PRIMM labs Inc. (Boston MA, USA).

Another test deals with T1, PKAα (Homo sapiens, UniProt P17612).
T1 construct: polyHis; made in house; host or cells: E. coli
Nature of the test: FABS-NMR screening (3-FABS, 19F-labelled AKTide-like substrate) on PKA. It is filed as biochemical. The following applies: 25 nM protein, 30 µM substrate, 150 µM ATP. The protocol:
The biochemical functional NMR screening on the proteins kinase AKT-1 and PKA was performed using the 3-FABS (3-Fluorine Atoms for Biochemical Screening) technique developed by C. Dalvit and the NMR group in house (C. Dalvit et al 2003 J. Am. Chem. Soc. 125 (47): 14620).
The method require the use of a ^19F-labelled substrate. The same commercial peptide was used as substrate in both enzymatic reaction: the Tyr just before the phosphorilation site in the AKTide peptide was mutated in a 3-tryfluormethyl-Phe by Bachem.
The AKTide like peptide sequence is reported below: • H-Ala-Arg-Lys-Arg-Glu-Arg-Ala-F(3-CF3)-Ser-Phe-Gly-His-His-Ala-OH
The active human Ser-Thr protein kinase AKT-1 Full Length was expressed as GST fusion protein in insect cells and then the GST was cleaved with PreScission protease. The active cycled AMP-dependent human protein kinase A PKA was expressed as polyHis-tag protein in E.Coli and purified by affinity column.
Reactions were performed in an end point format in eppendorf of 0.5 ml using the buffer solution 50mM Tris, pH 7.5, 5mM MgCl2, 1mM DTT, 8% D2O and 0.001% Triton-X-100; the final volume was of 560 µl. The substrate and protein concentration were of 30 µM and 25 nM respectively. The reactions were performed using an ATP concentration of about 9 times its KM: 150 µM in the test with PKA and 1.5 mM in the AKT-1 experiments. A sample in absence of inhibitor was run as control in order to follow the ongoing of the reaction and it represents the 0% inhibition. Different concentration compound stock solutions in DMSOd6 were made in order to add the same amount of DMSOd6 in each sample: usually the compounds stock were of 0.03, 0.2, 2, and 10 mM. 0.56 µl of these solution was added in each sample in order to reach the final compounds concentration of 30 nM, 200 nM 2 µM and 10 µM respectively; 0.56 µl of DMSOd6 was added in the control too. The reactions were quenched after about 100/120 minutes with 10 mM of Staurosporine (Sigma code:S4400), transferred into the 5 mm NMR tube (Cortec code: NE-MP5-8) and put onto the Sample Management System (SMS) autosampler for automatic data collection. The spectra were recorded using the Varian Inova 600 MHz NMR spectrometer operating at a ^19F Larmor frequency of 564 MHz and using a 5mm probe with the inner coil tuned to ^19F and the outer coil tuned to H. The data were recorded without proton decoupling with a spectral width of 12000 Hz, an acquisition time of 0.8s and a relaxation delay of 2.8s. Chemical shifts are referenced to trifluoroacetic acid.
IC50 determination was achieved by measuring the substrate signal as a function of the inhibitor concentration using one of the formulas below. […] IC50 data were analyzed with non-linear least squares methods in the Origin 5.0 software package.

Each structure is given as a SMILES string.

Sequence of AKT3 (Q9Y243 2-479): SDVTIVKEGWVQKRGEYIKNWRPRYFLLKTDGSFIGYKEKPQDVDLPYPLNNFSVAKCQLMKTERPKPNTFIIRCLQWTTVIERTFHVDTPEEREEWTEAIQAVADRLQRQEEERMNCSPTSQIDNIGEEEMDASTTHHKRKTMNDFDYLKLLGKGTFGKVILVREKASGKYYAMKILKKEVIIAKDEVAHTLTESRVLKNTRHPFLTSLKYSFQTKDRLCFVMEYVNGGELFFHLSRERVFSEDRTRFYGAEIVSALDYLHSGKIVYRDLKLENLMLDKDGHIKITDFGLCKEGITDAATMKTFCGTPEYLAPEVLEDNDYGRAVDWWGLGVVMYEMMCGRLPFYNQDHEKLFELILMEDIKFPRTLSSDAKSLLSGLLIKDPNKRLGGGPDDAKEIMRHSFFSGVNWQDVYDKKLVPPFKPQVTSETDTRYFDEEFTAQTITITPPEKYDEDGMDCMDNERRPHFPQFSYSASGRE

As for `NC[C@H](Cc1ccccc1)NC(=O)C1=Cc2c[nH]c3nccc(c23)CC1` [Cpd. 1, N-[(1S)-2-amino-1-benzylethyl]-6,7-dihydro-2H-2,3-diazabenzo[cd]azulene-8-carboxamide], the figures for the IC50 on AKT3 and at PKAα were 0.032 µM and 0.02 µM, respectively.

Consider `O=C(N[C@H](CN1CCCC1)c1ccccc1)C1=Cc2c[nH]c3nccc(c23)CC1` [Cpd. 6, N-[(1S)-1-phenyl-2-pyrrolidin-1-ylethyl]-6,7-dihydro-2H-2,3-diazabenzo[cd]azulene-8-carboxamide], for which the IC50 on AKT3 turned out to be 0.043 µM; against PKAα, 0.062 µM.

As to `CC(=O)N1CC(C(=O)N[C@H](CN)Cc2ccccc2)=Cc2c[nH]c3nccc1c23` [Cpd. 3, 6-acetyl-N-[(1S)-2-amino-1-benzylethyl]-6,7-dihydro-2H-2,3,6-triazabenzo[cd]azulene-8-carboxamide], the IC50 was found to be 0.187 µM at AKT3 and 0.075 µM on PKAα.

Take `NC[C@H](Cc1ccccc1)NC(=O)C1=Cc2c[nH]c3nccc(c23)NC1` [compound 2, N-[(1S)-2-amino-1-benzylethyl]-6,7-dihydro-2H-2,3,6-triazabenzo[cd]azulene-8-carboxamide]: the IC50 at AKT3 is 0.041 µM; at PKAα it was 0.01 µM.
